From patent publication US7091238B1, “Thienylhydrazon with digitalis-like properties (positive inotropic effects)” (University of Maryland, priority 1999, dated 2006)
Entries after “also recorded” stand apart in the source; their conditions may differ.

Tests used:
blood cells = assay: Blood cell analysis in treated mice; format: in vivo; details: 2 or 10 mg/kg
Experimental: b. Rats were weighed before and after treatment with LASSBio 204. […] Six rats were examined in each group, measurements were made after 1–15 days of treatment. […] Mice were injected with LASSBio-294 and their blood examined for cell changes. Experimental groups received 2 or 10 mg/kg of drug. […] Table 4 lists blood chemistry analysis of mice treated with LASSBio-294. Experimental groups received 2 or 10 mg/kg of drug. Controls were saline and solvent. […] The low values of glucose found could be due to an artifact of the technique, glucose being a byproduct of hemolysis. […] General Method

[1] = Plasma concentration kinetics; format: in vivo
Experimental: The plasma concentration of the drug reached a maximum at that time and afterwards tapered off to control levels within 2 hours.

single muscle fiber = assay: Twitch tension in single amphibian muscle fibers; format: cell-based, frog, rana pipiens
Experimental: FIG. 15. Effect of 12.5 μM of compound 294 on force development in a single muscle fiber stimulated at different frequencies. The frequency of stimulation in Hz is indicated under each trace. Top panel, stimulating cycle done in Ringer without compound 294. Middle panel, stimulating cycle done 17 min after the fiber was bathed with compound 294. Bottom panel, second cycle of stimulation done 17 min after compound 294 was washed out with Ringer. Force calibration bars are 50 mg for twitches and 10 Hz simulations and 100 mg for 30, 60, and 90 Hz.
FIG. 16. Histogram showing the effect of 12.5 μM compound 294 and after washing out LASSBio-294 on fractional twitch tension (Tx/To). Tx represents the twitch tension obtained when the fiber was bathed with the solutions indicated above each column. The order of the columns are the order in which the simulating cycles were performed.
The tests in amphibians were performed in isolated single muscle cells freshly isolated from either the semitendinous or the tibialis anterior muscles of the frog, rana pipiens. The isolated muscle cells were left resting for at least half an hour in Ringer's solution. The fibers were then stimulated with single, low-voltage, electric shocks. If fibers gave brisk twitches and had no signs of membrane damage, they were used. Otherwise, they were discarded. Healthy fibers were transferred to the experimental chamber, which consisted of a 0.3 ml narrow channel where the solutions could be changed several times within five seconds. One tendon of the fiber was gripped with a small clamp and the other tendon was attached to a hook of an Ekhart;s type force transducer. The stimulating electrode consisted of platinum wires placed to each side of the fiber. The muscle fibers were stretched 1.3 times their slack length to reach approximately an average sarcomere length of 1.6 μm.
The fibers were stimulated with single electric pulses of 0.5 msec duration and variable voltage. The voltage was increased until the threshold for contraction was reached. This voltage was then increased by 50% and the experimental protocol started. To find out if LASSBio-294 has an effect on contractility, a stimulating protocol was used consisting of a series of single twitches elicited every 3 sec. followed by different frequencies of tetanic stimulation of 10 Hz, 30 Hz, and 60 Hz. The fibers rested for three minutes between each tetanic stimulation. When the whole series of stimulations were repeated, the fibers rested for 10 min. between each series of twitches and tetanic stimulations. Fatigue was induced by repetitive cycles of electrical stimulation. Each cycle consisted of a train of electric shocks delivered at 60 Hz for 0.8 sec followed by a single twitch after 2.2 sec and repeated every 4.15 sec. […]. […]

[2] = test system: sarcoplasmic reticulum of human skeletal muscle fibers (vastus lateralis); assay: Induced tension in isolated human skeletal muscle fiber (sarcolemma removed); format: cell-based; details: 25, 50, 100 μM, SR loaded at pCa 7.0 for 3 min
Experimental: FIG. 14. Isolated human skeletal muscle fiber from the vastus lateralis (sarcolemmal membrane-free) was exposed to 0.5 mM of CaCl2 to enable maximal muscle tension (Po). The histogram show the effect of LASSBio-294 at concentrations of 25, 50 and 100 μM on induced tension in human fibers. N=6 Calibration: Vertical; 10 mm=20 mg; Horizontal, 10 mm=40 s.
Isolated muscle fiber from the vastus lateralis was exposed to 0.5 mM of CaCl2 to enable maximal muscle tension.

rat cardiac muscle = assay: Isometric tension of papillary, atrial and ventricular bundles of cardiac muscle
Experimental: (§1) FIG. 2. The papillary muscle, and bundles of atrial and ventricular cells obtained from rat hearts were dissected and set in an aerated chamber to enable recording of isometric tension. LASSBio-294 was added to the chamber in a cumulative manner, first 10 μM and increasing to 50 μM and recordings made after allowing 5 min. for equilibration.
FIG. 3. LASSBio-294 was added to the physiologic solution at increasing concentrations. The isometric tension was expressed as a percent of control, as measured prior to addition of test solution. N=9 for each concentration.
a. The test shown in FIG. 2 measured the effect of LASSBio-294 on the isometric tension of papillary, atrial, and ventricular bundles of rat cardiac muscle. Chart traces are of muscle tension for each muscle group. […] FIG. 3 contains a graphic representation of the effect of LASSBio-294 on isometric tension of papillary, atrial, and ventricular bundles of rat cardiac muscle. LASSBio-294 at concentrations of 0 μM, 25 μM, 50 μM, 100 μM, 200 μM, and 500 μM was used. Isometric tension is expressed as a percent of control that was measured prior to addition of the test solution. […] General Method
as §1, with “The” for “FIG. 2. The”, “aerated verticle” for “aerated”, “manner. Recordings” for “manner, first 10 μM and increasing to 50 μM and recordings”

Compound: O=C(NN=Cc1cccs1)c1ccc2c(c1)OCO2 [LASSBio-294, 3,4-methylenedioxybenzoyl-2-thienylhydrazone]
- blood cell values (blood cells): unaffected; also recorded: no significant change in blood cell values
- hematocrit levels, leucocytes and hemoglobin (blood cells): not significantly changed
- retention time (RT); time of maximum plasma concentration [1]: 14.59 min
- time for plasma concentration to taper off to control levels [1]: ≤ 2 h
- increase of twitch tension vs control (single muscle fiber; 12.5 μM, second stimulation cycle, 17 min in compound): ~50%
- increase of twitch peak tension vs control (single muscle fiber; 12.5 μM, three minutes after bathing): approximately 25%
- twitch tension potentiation vs control after wash out (single muscle fiber; 17 min in Ringer after washing away 12.5 μM compound): approximately 77%
- twitch force on re-exposure (single muscle fiber; fiber exposed again to 12.5 μM after wash out): decrease in twitch force
- release of Ca^2+ from the sarcoplasmic reticulum / induced tension [2]: induces the release of Ca^2+; also recorded: evoked a contraction
- isometric tension as percent of control vs concentration (rat cardiac muscle; 0, 25, 50, 100, 200, 500 μM, nine tests per concentration): increased for each concentration up to 200 μM
- isometric tension (rat cardiac muscle; papillary, atrial, ventricular bundles, 10 μM and 50 μM cumulative): increase in tension
- increased tension over control (rat cardiac muscle; ventricular, papillary and atrial bundles, concentrations of up to 200 uM): ≤ 2 fold
